In patent publication US10302653B2, “Distinguishing antagonistic and agonistic anti B7-H1 antibodies” (Mayo Foundation for Medical Education and Research, priority 2014, dated 2019):

Key:
[1] = molecular target: DNA-PK (Homo sapiens, UniProt P78527); details: 10 μM; cited from earlier work
[2] = molecular target: T1, DNA-PKcs (Mus musculus, UniProt P97313); experiment: p38 MAPK activation in pre-activated WT and B7-H1 KO T cells cultured with DNA-PKcs inhibitor; type: cell-based
T1 construct: endogenous in cells
Procedure: NU7026 (2-(morpholin-4-yl)-benzo[h]chomen-4-one) is a DNA-PKcs inhibitor. […] NU7026 is added into cultures with pre-activated WT and B7-H1 KO T cells and after 24-72 hours of incubation, the activation of p38 is measured in the cells. As a consequence of p38 MAPK activation regulated by NU7026, the level of Bcl-xL also is measured in the T cells after treatment with NU7026. If p38 activation is regulated by DNA-PKcs, changes in p38 activation in the presence of NU7026 would be observed in WT T cells. If B7-H1 requires DNA-PKcs to regulate activation of p38 MAPK, NU7026 would induce significant changes in p38 MAPK activation in WT T cells, but not in B7-H1 KO T cells. […] Bcl-xL levels would change accordingly with the changes in p38 MAPK activation. In addition to inhibition of DNA-PKcs activity by NU7026, the impact of total DNA-PKcs protein levels on p38 MAPK activation is evaluated. siRNA-mediated knockdown of DNA-PKcs is known to result in reduced ERK activation in mouse macrophages (Yotsumoto et al., supra). Using a similar approach, experiments are conducted to test whether down-regulation of DNA-PKcs in T cells affects p38 MAPK activation in WT and B7-H1 KO T cells. Preliminary data predicts a potential link between DNA-PK and activation of p38 MAPK. […]

T1 sequence (P97313 whole entry): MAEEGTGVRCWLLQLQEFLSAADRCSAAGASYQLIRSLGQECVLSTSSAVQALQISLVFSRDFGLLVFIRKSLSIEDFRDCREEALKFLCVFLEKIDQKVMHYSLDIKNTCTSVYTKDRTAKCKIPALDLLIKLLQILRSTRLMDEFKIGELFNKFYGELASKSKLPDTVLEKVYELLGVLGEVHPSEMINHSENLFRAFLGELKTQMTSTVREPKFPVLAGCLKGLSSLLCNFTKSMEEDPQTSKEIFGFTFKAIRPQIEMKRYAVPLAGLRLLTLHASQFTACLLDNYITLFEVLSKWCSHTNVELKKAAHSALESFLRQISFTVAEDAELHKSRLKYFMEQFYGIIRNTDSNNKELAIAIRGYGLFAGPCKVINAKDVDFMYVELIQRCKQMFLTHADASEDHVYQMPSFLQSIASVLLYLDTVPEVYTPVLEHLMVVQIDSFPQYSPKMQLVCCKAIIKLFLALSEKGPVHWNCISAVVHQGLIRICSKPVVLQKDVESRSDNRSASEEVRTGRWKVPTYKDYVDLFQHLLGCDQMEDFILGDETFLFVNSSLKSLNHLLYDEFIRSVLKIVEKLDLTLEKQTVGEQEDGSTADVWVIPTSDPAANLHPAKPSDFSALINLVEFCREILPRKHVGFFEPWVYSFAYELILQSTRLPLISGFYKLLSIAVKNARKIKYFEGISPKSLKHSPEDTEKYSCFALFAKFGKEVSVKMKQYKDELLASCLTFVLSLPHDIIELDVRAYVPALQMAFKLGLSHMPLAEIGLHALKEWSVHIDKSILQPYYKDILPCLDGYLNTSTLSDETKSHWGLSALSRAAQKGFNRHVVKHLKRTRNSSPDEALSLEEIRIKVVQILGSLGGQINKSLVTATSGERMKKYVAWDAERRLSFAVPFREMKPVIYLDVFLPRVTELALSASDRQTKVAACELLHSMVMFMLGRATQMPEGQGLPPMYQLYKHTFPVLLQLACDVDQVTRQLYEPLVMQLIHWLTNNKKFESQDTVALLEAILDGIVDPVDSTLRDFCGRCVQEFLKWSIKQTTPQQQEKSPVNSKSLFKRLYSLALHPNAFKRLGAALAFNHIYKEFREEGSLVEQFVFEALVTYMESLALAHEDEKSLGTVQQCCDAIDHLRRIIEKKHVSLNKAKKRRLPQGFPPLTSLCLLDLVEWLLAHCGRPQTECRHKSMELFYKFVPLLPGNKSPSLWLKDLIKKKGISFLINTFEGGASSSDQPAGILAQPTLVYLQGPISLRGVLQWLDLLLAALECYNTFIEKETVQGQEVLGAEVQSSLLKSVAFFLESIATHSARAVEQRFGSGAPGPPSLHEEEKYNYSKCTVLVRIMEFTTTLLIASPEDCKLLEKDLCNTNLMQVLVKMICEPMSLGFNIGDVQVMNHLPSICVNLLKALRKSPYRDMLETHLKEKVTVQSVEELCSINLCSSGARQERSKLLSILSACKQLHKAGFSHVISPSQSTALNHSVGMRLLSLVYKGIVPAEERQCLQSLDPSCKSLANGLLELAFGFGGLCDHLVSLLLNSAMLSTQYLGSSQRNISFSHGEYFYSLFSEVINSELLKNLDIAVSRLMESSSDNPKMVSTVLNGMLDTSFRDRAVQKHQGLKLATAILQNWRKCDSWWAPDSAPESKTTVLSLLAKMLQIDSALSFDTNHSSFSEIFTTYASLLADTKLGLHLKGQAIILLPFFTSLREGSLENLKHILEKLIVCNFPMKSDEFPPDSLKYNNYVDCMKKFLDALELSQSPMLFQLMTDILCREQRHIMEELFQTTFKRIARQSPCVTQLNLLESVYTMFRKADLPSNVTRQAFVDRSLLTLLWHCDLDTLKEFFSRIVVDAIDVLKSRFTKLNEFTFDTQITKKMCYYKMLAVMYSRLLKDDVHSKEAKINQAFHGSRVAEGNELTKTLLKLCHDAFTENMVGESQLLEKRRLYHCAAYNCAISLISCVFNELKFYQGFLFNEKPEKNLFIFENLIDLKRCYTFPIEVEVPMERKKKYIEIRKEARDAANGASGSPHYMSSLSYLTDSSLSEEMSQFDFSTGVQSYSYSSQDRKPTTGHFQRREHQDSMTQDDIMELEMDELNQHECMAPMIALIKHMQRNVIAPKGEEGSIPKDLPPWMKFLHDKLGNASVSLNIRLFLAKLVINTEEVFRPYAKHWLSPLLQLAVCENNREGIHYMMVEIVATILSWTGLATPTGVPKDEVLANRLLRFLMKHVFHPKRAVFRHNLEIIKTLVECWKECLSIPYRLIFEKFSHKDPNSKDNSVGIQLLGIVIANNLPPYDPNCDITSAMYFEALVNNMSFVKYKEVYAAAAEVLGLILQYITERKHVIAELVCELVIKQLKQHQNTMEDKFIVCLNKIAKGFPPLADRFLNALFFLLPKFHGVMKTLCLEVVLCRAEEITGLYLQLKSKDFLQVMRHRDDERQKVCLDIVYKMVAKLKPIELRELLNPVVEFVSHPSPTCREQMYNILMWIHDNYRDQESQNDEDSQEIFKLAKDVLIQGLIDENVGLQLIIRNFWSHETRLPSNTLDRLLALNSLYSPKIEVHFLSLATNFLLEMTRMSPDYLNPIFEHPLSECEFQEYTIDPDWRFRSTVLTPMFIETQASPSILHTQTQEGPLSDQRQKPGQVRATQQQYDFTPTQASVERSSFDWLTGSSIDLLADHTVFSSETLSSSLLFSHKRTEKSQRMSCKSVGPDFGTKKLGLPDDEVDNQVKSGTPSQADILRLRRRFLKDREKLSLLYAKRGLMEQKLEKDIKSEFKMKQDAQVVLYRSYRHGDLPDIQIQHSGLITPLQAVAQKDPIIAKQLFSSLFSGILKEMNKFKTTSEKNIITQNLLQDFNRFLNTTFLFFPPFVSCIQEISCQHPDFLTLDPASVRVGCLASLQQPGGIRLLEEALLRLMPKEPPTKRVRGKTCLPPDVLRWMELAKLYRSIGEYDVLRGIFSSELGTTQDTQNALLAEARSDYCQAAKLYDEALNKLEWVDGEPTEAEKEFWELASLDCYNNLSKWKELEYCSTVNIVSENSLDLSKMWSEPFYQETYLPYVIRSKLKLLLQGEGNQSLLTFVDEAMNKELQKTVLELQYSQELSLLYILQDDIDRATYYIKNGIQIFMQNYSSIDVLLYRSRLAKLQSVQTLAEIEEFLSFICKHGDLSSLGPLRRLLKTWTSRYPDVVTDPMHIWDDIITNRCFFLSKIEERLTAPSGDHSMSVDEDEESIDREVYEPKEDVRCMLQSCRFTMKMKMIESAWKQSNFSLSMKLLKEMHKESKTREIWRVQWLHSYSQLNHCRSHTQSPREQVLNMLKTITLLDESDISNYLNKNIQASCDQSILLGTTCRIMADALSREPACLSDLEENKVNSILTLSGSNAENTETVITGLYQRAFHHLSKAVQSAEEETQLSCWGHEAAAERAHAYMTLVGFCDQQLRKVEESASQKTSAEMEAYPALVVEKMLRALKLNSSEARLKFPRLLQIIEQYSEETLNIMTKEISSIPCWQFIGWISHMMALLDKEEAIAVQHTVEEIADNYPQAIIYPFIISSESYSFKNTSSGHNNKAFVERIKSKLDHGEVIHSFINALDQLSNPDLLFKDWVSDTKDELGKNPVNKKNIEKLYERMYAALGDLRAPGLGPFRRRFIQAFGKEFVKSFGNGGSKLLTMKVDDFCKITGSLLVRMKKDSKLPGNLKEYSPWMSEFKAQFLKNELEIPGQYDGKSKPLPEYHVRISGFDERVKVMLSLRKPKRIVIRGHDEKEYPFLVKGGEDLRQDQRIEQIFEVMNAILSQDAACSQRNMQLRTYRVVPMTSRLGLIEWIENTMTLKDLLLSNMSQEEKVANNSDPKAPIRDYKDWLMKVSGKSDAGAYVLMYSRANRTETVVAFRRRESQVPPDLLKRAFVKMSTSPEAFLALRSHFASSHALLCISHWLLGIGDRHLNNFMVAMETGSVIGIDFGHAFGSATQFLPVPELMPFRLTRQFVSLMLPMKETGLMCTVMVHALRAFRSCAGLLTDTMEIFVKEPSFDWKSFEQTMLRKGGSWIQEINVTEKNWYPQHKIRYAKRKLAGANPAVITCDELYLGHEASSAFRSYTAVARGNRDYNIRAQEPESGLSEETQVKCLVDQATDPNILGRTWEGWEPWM

## O=c1cc(N2CCOCC2)oc2c1ccc1ccccc12 [NU7026, 2-(morpholin-4-yl)-benzo[h]chomen-4-one]
[1]
  inhibition of activity of purified DNA-PK: completely inhibit
[2]
  p38 MAPK activation in WT T cells: increased
